Where two headings read alike, the source gives them in different places.
How the values were obtained:
[1] = tested on: human neuroblastoma cell line SH-SY-5Y; assay: Cytotoxicity assay in human neuroblastoma cell line SH-SY-5Y; type: cell-based
Experimental: (§1) At time zero, the cells were seeded at 1.10^4/cm^2 in 96 well plates in DMEM growth medium+10% heat inactivated FBS+2 mM 1-Glutamine+100 U/mL-100 μg/mL Penicillin/Streptomycin.
(§2) After 72 hours at subconfluent phase of growth, the medium was removed and cells were incubated for 24 hours at 37° C. in 180 μL of neurobasal medium+2 mM 1-Glutamine (Life Techonologies) with or without test compounds (20 μL, at least 5 concentrations in triplicate).
(§3) At the end of incubation, 20 μL of Alamar Blue dye (AlamarBlue™ Assay Kit, Promega) were directly added to the cell medium.
(§4) Four hours after, the cytotoxicity was assessed by measuring the fluorescence at 530 nm excitation and 595 nm emission using Tecan Spectrafluor plate reader.
(§5) Before and at the end of the treatment, the cultures were monitored microscopically by an Olympus IX70 inverted light microscope matched to an Image Analyzer (Image Pro Plus, 5.1) to evaluate the cellular morphology.
(§6) Results are expressed in Table 1 as concentration inducing 50% of mortality.

CYP3A4 = molecular target: T1, CYP3A4 (Homo sapiens, UniProt P08684); assay: Cytochrome P450 assay (Gentest Kit), CYP3A4; type: in vitro ADME
T1 construct: purchased Gentest
Experimental: (§7) Inhibition of the five most important Cytochrome P450 isoforms (CYP1A2, CYP2C9, CYP2C19, CYP2D6 and CYP3A4), involved in drug metabolism, was measured using specific substrates that become fluorescent upon CYP metabolism (Gentest Kit assay).
(§8) Compounds were tested in a 96-well plate containing incubation/NADPH regenerating buffer. Specific human recombinant isoenzymes and substrates were added and incubated at 37° C. for 15 min for CYP1A2/CEC, 40 min for CYP2E1/MFC, 45 min for CYP2C9/MFC and 30 min for the others CYP450.
(§9) The specific substrates were the following: 3-cyano-7-ethoxycoumarin (CYP2C19 and CYP1A2), • 7-methoxy-4-trifluoromethylcoumarin (CYP2C9), • 3[2(N,N-diethyl-N-methylamino)ethyl]-7-methoxy-4-methylcoumarin (CYP2D6) • benzylphenylcoumarin (CYP3A4)

CYP2D6 = molecular target: T2, CYP2D6 (Homo sapiens, UniProt P10635); assay: Cytochrome P450 assay (Gentest Kit), CYP2D6; type: in vitro ADME
T2 construct: purchased Gentest
Experimental: as §7, §8, §9

CYP2C19 = molecular target: T3, CYP2C19 (Homo sapiens, UniProt P33261); assay: Cytochrome P450 assay (Gentest Kit), CYP2C19; type: in vitro ADME
T3 construct: purchased Gentest
Experimental: as §7, §8, §9

CYP2C9 = molecular target: T4, CYP2C9 (Homo sapiens, UniProt P11712); assay: Cytochrome P450 assay (Gentest Kit), CYP2C9; type: in vitro ADME
T4 construct: purchased Gentest
Experimental: as §7, §8, §9

CYP1A2 = molecular target: T5, CYP1A2 (Homo sapiens, UniProt P05177); assay: in vitro; type: in vitro ADME
T5 construct: purchased Gentest
T5 sequence (P05177 1-516): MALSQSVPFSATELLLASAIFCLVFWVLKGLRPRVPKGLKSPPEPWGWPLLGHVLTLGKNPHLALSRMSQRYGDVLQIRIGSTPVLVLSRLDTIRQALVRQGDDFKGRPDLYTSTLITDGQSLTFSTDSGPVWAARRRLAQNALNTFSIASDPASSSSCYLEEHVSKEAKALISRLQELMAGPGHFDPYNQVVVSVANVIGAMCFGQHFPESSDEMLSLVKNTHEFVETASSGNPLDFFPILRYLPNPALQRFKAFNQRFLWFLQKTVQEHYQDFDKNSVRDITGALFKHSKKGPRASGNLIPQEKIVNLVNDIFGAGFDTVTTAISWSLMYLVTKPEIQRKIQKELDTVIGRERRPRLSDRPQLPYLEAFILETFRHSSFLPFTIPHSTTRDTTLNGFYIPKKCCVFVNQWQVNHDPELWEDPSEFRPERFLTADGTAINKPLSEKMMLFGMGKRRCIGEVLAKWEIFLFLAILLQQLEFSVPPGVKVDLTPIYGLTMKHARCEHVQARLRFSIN
Experimental: as §7, §8, §9

recombinant HERG channel [2] = molecular target: T6, recombinant HERG channel (Homo sapiens, UniProt Q12809)
Experimental: (§10) The inhibition of HERG current was tested in CHO cells stably expressing recombinant HERG channel.
(§11) To evaluate the effect of the test compounds on HERG currents, cells were clamped at −80 mV, depolarised to 0 mV for 5 seconds allowing activation of HERG current and repolarised to −50 mV during 5 seconds allowing HERG tail current to deactivate. This procedure was repeated at a frequency of 0.06 Hz. The current amplitude upon repolarisation (HERG tail current) was measured before and after exposure to the test compound.
(§12) Inhibition of current was calculated as the difference between the amplitude of HERG tail current amplitude measured at the end of external bath perfusion period and HERG tail current measured at the end of test compound perfusion period (when steady-state effect is reached) divided by control HERG tail current.
(§13) Drug concentration-inhibition curves were obtained by plotting tonic blocks versus drug concentrations. Dose-response curves were fitted to the tonic block data, according to the logistic equation: y=A2+(A1−A2)/[1+(x/IC50)^p].

Male CD1 mice = type: in vivo
Experimental: The maximal electroshock test (MES) is used commonly in the screening of anti-epileptic drugs in rodent models.
Animals and Apparatus: Male CD1 mice weighing 25 g were used. […] The stimulus was delivered intra-aurally through clip electrodes in mice (0.7 seconds of a 40 mA shock, with a pulse train of 80 Hz having a pulse duration of 0.4 ms). The acute effect of compounds administered intraperitoneally or orally 15-60 min before MES induction were examined and compared with a vehicle control group. Ten mice were studied per group. Complete suppression of the hindlimb tonic extensor component of seizures was taken as evidence of anticonvulsant activity.
The compounds of the invention were administered orally or intraperitoneally at the doses of 3-30 mg/kg.
The results are expressed in Tables 3 and 4 as % of protection.

[3] = Cytotoxicity assay in human neuroblastoma cell line SH-SY-5Y; type: cell-based; details: human, SH-SY-5Y neuroblastoma cells; SH-SY-5Y, 24 hours incubation, Alamar Blue; concentration inducing 50% of mortality
Experimental: as §1, §2, §3, §4, §5, §6

recombinant HERG channel [4] = molecular target: T6, recombinant HERG channel; assay: HERG current in transfected CHO cell lines
Experimental: as §10, §11, §12, §13

[5] = Table 1, human recombinant isoenzyme, substrate benzylphenylcoumarin, read-out: CYP3A4 IC50
[6] = human recombinant isoenzyme, fluorescent substrate, read-out: CYP2D6 IC50
[7] = human recombinant isoenzyme, substrate 3-cyano-7-ethoxycoumarin, read-out: CYP2C19 IC50
[8] = human recombinant isoenzyme, substrate 7-methoxy-4-trifluoromethylcoumarin, read-out: CYP2C9 IC50

T3 sequence (P33261 whole entry): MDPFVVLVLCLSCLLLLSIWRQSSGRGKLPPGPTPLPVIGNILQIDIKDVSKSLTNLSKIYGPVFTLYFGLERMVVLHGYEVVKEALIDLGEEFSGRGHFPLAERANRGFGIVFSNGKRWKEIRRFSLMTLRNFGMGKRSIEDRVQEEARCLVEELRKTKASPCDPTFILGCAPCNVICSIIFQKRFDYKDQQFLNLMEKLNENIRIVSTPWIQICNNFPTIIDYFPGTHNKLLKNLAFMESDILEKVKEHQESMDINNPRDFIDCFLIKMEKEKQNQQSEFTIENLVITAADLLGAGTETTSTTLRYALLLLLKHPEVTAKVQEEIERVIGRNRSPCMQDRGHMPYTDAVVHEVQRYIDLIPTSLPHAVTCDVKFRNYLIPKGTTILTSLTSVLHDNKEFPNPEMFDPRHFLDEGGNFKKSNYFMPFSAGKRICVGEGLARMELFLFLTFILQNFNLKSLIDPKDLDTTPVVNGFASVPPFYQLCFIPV
T1 sequence (P08684 whole entry): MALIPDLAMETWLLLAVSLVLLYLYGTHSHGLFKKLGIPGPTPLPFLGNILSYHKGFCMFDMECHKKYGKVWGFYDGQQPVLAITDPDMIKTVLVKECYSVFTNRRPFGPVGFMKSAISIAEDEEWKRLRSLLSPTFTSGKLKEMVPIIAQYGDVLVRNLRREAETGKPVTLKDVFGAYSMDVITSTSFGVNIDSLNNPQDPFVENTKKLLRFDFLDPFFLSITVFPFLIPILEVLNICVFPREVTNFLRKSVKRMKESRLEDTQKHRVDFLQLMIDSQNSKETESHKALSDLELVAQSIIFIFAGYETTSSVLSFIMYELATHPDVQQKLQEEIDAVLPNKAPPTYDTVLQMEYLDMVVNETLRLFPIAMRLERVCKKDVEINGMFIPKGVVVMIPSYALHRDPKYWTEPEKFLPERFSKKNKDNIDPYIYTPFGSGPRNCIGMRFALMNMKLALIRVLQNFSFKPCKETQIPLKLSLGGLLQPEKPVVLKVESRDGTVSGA
T2 sequence (P10635 whole entry): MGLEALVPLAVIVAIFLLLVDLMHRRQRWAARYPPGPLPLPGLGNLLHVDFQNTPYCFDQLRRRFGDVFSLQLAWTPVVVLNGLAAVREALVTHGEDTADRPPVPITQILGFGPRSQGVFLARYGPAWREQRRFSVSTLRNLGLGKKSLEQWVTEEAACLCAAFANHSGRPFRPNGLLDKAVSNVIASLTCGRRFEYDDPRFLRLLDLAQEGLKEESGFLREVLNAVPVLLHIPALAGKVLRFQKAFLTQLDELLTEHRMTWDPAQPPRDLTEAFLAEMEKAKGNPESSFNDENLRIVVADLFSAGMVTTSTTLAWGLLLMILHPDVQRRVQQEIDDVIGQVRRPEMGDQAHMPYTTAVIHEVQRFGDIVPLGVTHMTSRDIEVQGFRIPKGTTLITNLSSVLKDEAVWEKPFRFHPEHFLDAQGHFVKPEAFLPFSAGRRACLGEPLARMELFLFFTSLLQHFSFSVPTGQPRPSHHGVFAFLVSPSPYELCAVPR
T4 sequence (P11712 whole entry): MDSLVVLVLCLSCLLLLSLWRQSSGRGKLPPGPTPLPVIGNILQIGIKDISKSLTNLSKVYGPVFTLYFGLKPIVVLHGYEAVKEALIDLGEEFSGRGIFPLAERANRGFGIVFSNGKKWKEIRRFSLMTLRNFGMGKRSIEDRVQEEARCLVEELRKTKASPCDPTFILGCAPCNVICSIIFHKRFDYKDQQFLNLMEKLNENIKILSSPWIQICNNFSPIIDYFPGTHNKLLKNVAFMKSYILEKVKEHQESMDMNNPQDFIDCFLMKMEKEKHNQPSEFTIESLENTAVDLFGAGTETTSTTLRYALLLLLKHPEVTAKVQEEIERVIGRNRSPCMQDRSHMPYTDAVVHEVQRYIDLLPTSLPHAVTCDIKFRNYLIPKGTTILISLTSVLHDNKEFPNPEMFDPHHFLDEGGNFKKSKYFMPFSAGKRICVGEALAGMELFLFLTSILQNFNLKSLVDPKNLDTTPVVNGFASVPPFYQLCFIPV
T6 sequence (Q12809 whole entry): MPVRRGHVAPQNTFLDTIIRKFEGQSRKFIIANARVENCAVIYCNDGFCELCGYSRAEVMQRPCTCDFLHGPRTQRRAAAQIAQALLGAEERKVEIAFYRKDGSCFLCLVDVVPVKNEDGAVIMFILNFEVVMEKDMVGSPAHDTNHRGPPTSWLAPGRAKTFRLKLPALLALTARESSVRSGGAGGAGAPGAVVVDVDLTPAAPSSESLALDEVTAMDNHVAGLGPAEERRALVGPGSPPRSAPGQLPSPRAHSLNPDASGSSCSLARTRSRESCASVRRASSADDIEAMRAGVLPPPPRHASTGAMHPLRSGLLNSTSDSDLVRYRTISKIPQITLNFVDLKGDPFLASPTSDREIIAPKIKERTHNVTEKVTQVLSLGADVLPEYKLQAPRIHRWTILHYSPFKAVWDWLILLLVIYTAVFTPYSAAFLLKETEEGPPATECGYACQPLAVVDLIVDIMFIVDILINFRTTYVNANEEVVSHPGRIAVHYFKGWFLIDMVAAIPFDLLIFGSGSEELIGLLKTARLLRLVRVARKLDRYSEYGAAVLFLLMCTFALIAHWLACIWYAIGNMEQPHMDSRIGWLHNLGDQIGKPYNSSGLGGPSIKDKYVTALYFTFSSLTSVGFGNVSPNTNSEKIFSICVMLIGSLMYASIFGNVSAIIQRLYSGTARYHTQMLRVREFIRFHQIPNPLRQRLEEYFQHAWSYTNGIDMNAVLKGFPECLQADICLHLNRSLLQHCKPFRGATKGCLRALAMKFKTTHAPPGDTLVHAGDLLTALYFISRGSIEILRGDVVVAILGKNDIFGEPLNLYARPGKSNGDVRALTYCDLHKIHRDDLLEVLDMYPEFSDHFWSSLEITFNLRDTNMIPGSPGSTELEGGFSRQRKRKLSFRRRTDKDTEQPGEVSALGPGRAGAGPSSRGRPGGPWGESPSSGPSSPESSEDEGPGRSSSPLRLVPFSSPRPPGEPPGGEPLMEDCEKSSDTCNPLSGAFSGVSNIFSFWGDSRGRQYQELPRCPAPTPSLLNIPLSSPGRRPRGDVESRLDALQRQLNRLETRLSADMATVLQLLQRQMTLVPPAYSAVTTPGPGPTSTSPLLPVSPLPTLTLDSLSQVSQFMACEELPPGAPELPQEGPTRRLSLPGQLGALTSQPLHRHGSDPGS

## C[C@@H](NCc1ccc(OCc2cccc(F)c2)c(Cc2cccc(F)c2)c1)C(N)=O (racemic) [Impurity (IIc, II′c), (R,S)-2-[3-(3-fluorobenzyl)-4-(3-fluorobenzyloxy)-benzylamino]propanamide methanesulfonate]
[1]
  IC50: 11800 nM
CYP3A4
  IC50: 60 nM
CYP2D6
  IC50: 310 nM
CYP2C19
  IC50: 170 nM
CYP2C9
  IC50: 5570 nM
CYP1A2
  IC50: 28000 nM
Recombinant HERG channel [2]
  IC50: < 1000 nM

## C[C@@H](NCc1ccc(OCc2ccccc2F)c(Cc2ccccc2F)c1)C(N)=O (racemic) [Impurity (IId, II′d), (R,S)-2-[3-(2-fluorobenzyl)-4-(2-fluorobenzyloxy)-benzylamino]propanamide methanesulfonate]
[1]
  IC50: 14300 nM
CYP3A4
  IC50: 60 nM
CYP2D6
  IC50: 1190 nM
CYP2C19
  IC50: 30 nM
CYP2C9
  IC50: 4960 nM
CYP1A2
  IC50: 39400 nM
Recombinant HERG channel [2]
  IC50: < 1000 nM

## CS(=O)(=O)O.C[C@H](NCc1ccc(OCc2cccc(F)c2)c(Cc2cccc(F)c2)c1)C(N)=O [Impurity (IIc), (S)-2-[3-(3-fluorobenzyl)-4-(3-fluorobenzyloxy)-benzylamino]propanamide methanesulfonate]
Male CD1 mice; mice, 3 mg/kg ip
  MES dead/live: 5/10
Male CD1 mice; mice, 10 mg/kg ip
  MES dead/live: 4/10
Male CD1 mice; mice, 30 mg/kg ip
  MES dead/live: 4/10
Male CD1 mice; mice, ip, from 3 mg/kg
  pharmacological activity, i.e. protection from convulsions, in MES test (in words): without any pharmacological activity
Male CD1 mice; starting from 3 mg/kg ip
  mortality in the mice MES test (in words): increases

## CS(=O)(=O)O.C[C@H](NCc1ccc(OCc2ccccc2F)c(Cc2ccccc2F)c1)C(N)=O [Impurity (IId), (S)-2-[3-(2-fluorobenzyl)-4-(2-fluorobenzyloxy)-benzylamino]propanamide methanesulfonate]
Male CD1 mice; mice, 10 mg/kg p.o.
  MES dead/live: 0/10
Male CD1 mice; mice, 20 mg/kg p.o.
  MES dead/live: 0/10
Male CD1 mice; p.o. at 10 and 20 mg/kg, compared with same doses of ralfinamide methanesulfonate
  protection of mice from convulsions in MES test (in words): doesn't protect mice from convulsions

## C[C@@H](NCc1ccc(OCc2cccc(F)c2)c(Cc2cccc(F)c2)c1)C(N)=O [Impurity (II′c), (R)-2-[3-(3-fluorobenzyl)-4-(3-fluorobenzyloxy)-benzylamino]propanamide methanesulfonate]
[3]
  IC50 at 24 h: 8810 nM
CYP3A4; [5]
  IC50: 90 nM
CYP2D6; [6]
  IC50: 150 nM
CYP2C19; [7]
  IC50: 150 nM
CYP2C9; [8]
  IC50: 4940 nM
CYP1A2; human recombinant isoenzyme, substrate 3-cyano-7-ethoxycoumarin, read-out: CYP1A2 IC50
  IC50: 29200 nM
Recombinant HERG channel [4]
  IC50: < 1000 nM

## C[C@@H](NCc1ccc(OCc2ccccc2F)c(Cc2ccccc2F)c1)C(N)=O [Impurity (II′d), (R)-2-[3-(2-fluorobenzyl)-4-(2-fluorobenzyloxy)-benzylamino]propanamide methanesulfonate]
[3]
  IC50 at 24 h: 11500 nM
CYP3A4; [5]
  IC50: 70 nM
CYP2D6; [6]
  IC50: 620 nM
CYP2C19; [7]
  IC50: 30 nM
CYP2C9; [8]
  IC50: 4340 nM
CYP1A2; recombinant human CYP1A2, probe 3-cyano-7-ethoxycoumarin, human recombinant isoenzyme, substrate 3-cyano-7-ethoxycoumarin
  IC50 at 15 min: > 40000 nM
Recombinant HERG channel [4]
  IC50: < 1000 nM

## CS(=O)(=O)O.C[C@H](NCc1ccc(OCc2cccc(F)c2)cc1)C(N)=O [Safinamide methanesulfonate (Ic), (S)-2-[4-(3-fluorobenzyloxy)benzylamino]propanamide methanesulfonate, reference compound]
Male CD1 mice; mice, 3 mg/kg ip
  MES % protection: 50%
Male CD1 mice; mice, 10 mg/kg ip
  MES % protection: 100%
Male CD1 mice; mice, 30 mg/kg ip
  MES % protection: 100%
